Measurements: PubChem BioAssay (NCI)
Where “and” joins values, the source holds several entries; their conditions need not be identical. Identical values can stand only once.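 Growth conditions: 96-well plates. Treatment: test compound, 48 hours, 5 concentrations. Analysis: linear interpolation between bracketing concentrations; unreached endpoints set to highest concentration. Here, GI50 denotes the concentration required for 50% inhibition of growth. Definition used: TGI = concentration required for complete inhibition of growth.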

How the values were obtained:
Experiment in all cases: NCI-60 cell line screen, 48 h
OVCAR-5 ovarian = system: OVCAR-5 ovarian
NCI-H226 lung = system: NCI-H226 lung
OVCAR-3 ovarian = system: OVCAR-3 ovarian
K-562 leukemia = system: K-562 leukemia
HOP-62 NSCLC = system: HOP-62 NSCLC
U251 CNS = system: U251 CNS
786-0 renal = system: 786-0 renal
SW-620 colon = system: SW-620 colon
COLO 205 colon = system: COLO 205 colon
NCI-H522 lung = system: NCI-H522 lung

Structure (SMILES) | TGI (OVCAR-5 ovarian) [µM] | TGI (NCI-H226 lung) | TGI (OVCAR-3 ovarian) | TGI (K-562 leukemia) [µM] | TGI (HOP-62 NSCLC) [µM] | TGI (U251 CNS) [µM] | TGI (786-0 renal) [µM] | TGI (SW-620 colon) [µM] | TGI (COLO 205 colon) | TGI (NCI-H522 lung) [µM] | GI50 (OVCAR-5 ovarian) | GI50 (NCI-H226 lung) | GI50 (NCI-H522 lung) | GI50 (OVCAR-3 ovarian) | GI50 (HOP-62 NSCLC) | GI50 (COLO 205 colon) | GI50 (K-562 leukemia) [µM] | GI50 (U251 CNS) [µM] | GI50 (SW-620 colon) [µM]
COc1ccc(C[n+]2cccc(O)c2)cc1 | > 100 | > 100 µM | > 100 µM | > 100 | > 100 | > 100 | > 100 | > 100 |  |  |  |  |  |  |  |  |  |  | 
Cc1cccc2c(N)c3cccc(C(=O)NCC[N+](C)(C)Cc4ccc(S(C)(=O)=O)cc4)c3nc12 | > 100 | > 100 µM | > 100 µM | > 52.2 | > 100 | > 100 | > 100 | > 100 | > 100 µM |  |  |  |  |  |  |  |  |  | 
O=c1oc2ccc3ccccc3c2cc1-c1nc(-c2ccc([N+](=O)[O-])cc2)n[nH]1 | > 100 |  | > 100 µM | > 100 | 42 | > 100 | > 100 | > 100 | > 100 µM | > 100 |  |  |  |  |  |  |  |  | 
CCOC(CN(C)C(=O)Nc1ccc(Cl)c(Cl)c1)OCC |  | > 10 µM | > 10 µM | > 10 | > 10 | > 10 | > 10 | > 10 | > 10 µM | > 10 |  |  |  |  |  |  |  |  | 
O=C1NC(=S)N/C1=C\c1ccc(Cl)cc1 | > 100 | > 100 µM | > 100 µM |  | > 100 | > 100 | > 100 | > 100 | > 100 µM | > 100 |  |  |  |  |  |  |  |  | 
CN1C(=O)N/C(=C\c2ccc(S(=O)(=O)N/N=C/c3ccccc3)cc2)C1=O | > 100 | > 100 µM | > 100 µM | > 100 | > 100 | > 100 | > 100 | > 100 | > 100 µM |  |  |  |  |  |  |  |  |  | 
CC[C@@]1(O)C(=O)OCc2c1cc1n(c2=O)Cc2cc3c(CN(C)C)c(O)ccc3nc2-1 |  | 1.28 µM [middle of 4 runs] | 1.37 µM and 7.71 µM and 2.12 µM |  |  |  |  |  | 4.85 µM [middle of 4 runs] |  | 0.168 µM and 0.217 µM and 0.407 µM | 0.0153 µM and 0.0964 µM and 0.0626 µM | < 0.025 µM and 0.0206 µM and 0.0416 µM | 0.107 µM and 0.124 µM and 0.551 µM | 0.0102 µM and 0.00621 µM and 0.0163 µM | 0.384 µM and 0.089 µM and 0.855 µM |  |  | 
Cc1cc(O)c2c(c1)C(C1OC(CO)C(O)C(O)C1O)c1cc(O)cc(O)c1C2=O (stereo not given) | > 100 | > 100 µM | > 100 µM | > 100 | > 100 | > 100 | > 100 | > 100 | > 100 µM |  |  |  |  |  |  |  |  |  | 
CCCCC(O)(c1ccccc1)C(O)(c1ccccc1)c1c(F)c(F)c(F)c(F)c1F (stereo not given) | 41.1 | 86 µM | 32.6 µM | 82.4 | 49.5 | 32 | 39.4 | 61.8 |  |  |  |  |  |  |  |  |  |  | 
O=c1ccn(Cc2ccccc2CCl)c(=O)[nH]1 | 37.4 |  | 42 µM | > 100 | 52.7 | 85.2 | 38 | > 100 | 94.3 µM | 43.9 |  |  |  |  |  |  |  |  | 
N#CC(c1ccccc1)N(CCc1ccccc1)C(=O)c1ccc(C(=O)N(CCc2ccccc2)C(C#N)c2ccccc2)cc1 (stereo not given) | 78.7 | 33.8 µM | 47 µM | 67.4 |  | 64.6 | 56.5 | 58.7 | 55.6 µM |  |  |  |  |  |  |  |  |  | 
O=S(=O)(O)c1ccc(Nc2ccnc3ccccc23)cc1 | > 100 | > 100 µM |  | > 100 | > 100 | > 100 | > 100 | > 100 | > 100 µM | > 100 |  |  |  |  |  |  |  |  | 
Clc1ccc(C2CC(c3cccc(Nc4ccncc4)c3)=NN2c2ccccc2)cc1 (stereo not given) | 3.07 | 39.5 µM |  | 5.45 | 5.15 | 3.81 |  | 3.34 | 4.5 µM | 3.24 | 1.66 µM | 16.4 µM | 1.57 µM |  | 2.31 µM | 1.96 µM | 1.67 | 1.89 | 1.67
O=S1(=O)OCCOS(=O)(=O)C1(Cl)Cl |  | > 100 µM | > 100 µM | > 100 | > 100 |  | > 100 | > 100 | > 100 µM | > 100 |  |  |  |  |  |  |  |  | 
Cc1cn(CC2=NC3CCCCC3N2)c(=O)[nH]c1=O (stereo not given) | > 100 | > 100 µM |  | > 100 | > 100 | > 100 | > 100 | > 100 | > 100 µM | > 100 |  |  |  |  |  |  |  |  | 
CC(NC(=O)C(N)CC(=O)O)C(=O)OC12CC3CC(CC(C3)C1)C2 (stereo not given) | > 100 |  |  | > 100 |  | > 100 | > 100 | > 100 | > 100 µM | > 100 |  |  |  |  |  |  |  |  | 
